Measurements as given in ChEMBL document CHEMBL5131538 (J Med Chem, 2022).
Active and inactive are the calls of the source. No cut-off for these calls is given here.

Tests used:
[1] = target: T1, Glucocorticoid receptor (Rattus norvegicus, UniProt P06536); assay: Displacement of [3H]-dexamethasone from rat glucocorticoid receptor incubated overnight by liquid scintillation counting analysis
T1 sequence (P06536 whole entry): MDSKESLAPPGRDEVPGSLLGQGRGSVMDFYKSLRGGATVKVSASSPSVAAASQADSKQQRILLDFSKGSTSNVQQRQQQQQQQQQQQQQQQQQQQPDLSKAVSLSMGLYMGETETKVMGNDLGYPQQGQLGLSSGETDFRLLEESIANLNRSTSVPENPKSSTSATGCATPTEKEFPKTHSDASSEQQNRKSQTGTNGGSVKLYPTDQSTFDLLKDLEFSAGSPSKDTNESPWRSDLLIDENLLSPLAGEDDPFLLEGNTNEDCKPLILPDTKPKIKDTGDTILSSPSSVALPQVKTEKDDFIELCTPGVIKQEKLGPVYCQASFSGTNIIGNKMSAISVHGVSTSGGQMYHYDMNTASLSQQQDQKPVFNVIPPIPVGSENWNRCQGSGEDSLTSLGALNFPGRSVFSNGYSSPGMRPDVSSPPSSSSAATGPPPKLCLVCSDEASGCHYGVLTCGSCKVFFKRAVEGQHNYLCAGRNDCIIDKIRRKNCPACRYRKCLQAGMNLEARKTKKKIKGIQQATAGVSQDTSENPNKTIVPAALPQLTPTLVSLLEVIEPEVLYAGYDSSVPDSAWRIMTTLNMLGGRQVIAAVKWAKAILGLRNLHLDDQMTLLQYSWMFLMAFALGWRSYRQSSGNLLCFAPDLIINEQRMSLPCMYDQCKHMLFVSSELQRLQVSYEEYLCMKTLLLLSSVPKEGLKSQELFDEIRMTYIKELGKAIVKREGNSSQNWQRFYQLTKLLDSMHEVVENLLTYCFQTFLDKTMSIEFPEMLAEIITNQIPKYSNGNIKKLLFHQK

[2] = target: T2, Androgen receptor (Homo sapiens, UniProt P10275)
T2 sequence (P10275 whole entry): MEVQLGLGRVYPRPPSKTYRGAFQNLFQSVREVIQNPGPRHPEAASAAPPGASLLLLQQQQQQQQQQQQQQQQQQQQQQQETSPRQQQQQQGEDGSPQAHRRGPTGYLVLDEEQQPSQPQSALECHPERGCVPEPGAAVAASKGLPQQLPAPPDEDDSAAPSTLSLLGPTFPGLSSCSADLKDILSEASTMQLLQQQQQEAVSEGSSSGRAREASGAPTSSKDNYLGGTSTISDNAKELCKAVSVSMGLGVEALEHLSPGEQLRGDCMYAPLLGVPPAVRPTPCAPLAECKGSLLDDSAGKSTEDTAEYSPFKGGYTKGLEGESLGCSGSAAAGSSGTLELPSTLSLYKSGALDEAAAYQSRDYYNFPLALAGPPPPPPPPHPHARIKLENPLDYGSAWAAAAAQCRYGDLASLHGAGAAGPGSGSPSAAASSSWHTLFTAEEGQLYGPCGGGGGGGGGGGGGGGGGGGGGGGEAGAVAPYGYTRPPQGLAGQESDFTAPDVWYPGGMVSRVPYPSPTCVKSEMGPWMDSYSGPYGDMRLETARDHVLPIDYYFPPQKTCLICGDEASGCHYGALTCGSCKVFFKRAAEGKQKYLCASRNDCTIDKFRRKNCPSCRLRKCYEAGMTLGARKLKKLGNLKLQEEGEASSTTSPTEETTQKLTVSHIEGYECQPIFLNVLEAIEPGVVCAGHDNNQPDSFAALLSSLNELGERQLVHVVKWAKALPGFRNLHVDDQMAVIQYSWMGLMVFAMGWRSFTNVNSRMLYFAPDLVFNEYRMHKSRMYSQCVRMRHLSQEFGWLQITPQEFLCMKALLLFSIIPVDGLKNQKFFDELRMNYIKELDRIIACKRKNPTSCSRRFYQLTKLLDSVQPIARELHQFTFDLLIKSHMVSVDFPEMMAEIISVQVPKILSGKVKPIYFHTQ
Description: Displacement of [3H]-methyltrienolene from human androgen receptor incubated overnight by liquid scintillation counting analysis

[3] = target: Estrogen receptor beta (Homo sapiens, UniProt Q92731); assay: biochemical
Chain of Estrogen receptor beta (Q92731 whole entry): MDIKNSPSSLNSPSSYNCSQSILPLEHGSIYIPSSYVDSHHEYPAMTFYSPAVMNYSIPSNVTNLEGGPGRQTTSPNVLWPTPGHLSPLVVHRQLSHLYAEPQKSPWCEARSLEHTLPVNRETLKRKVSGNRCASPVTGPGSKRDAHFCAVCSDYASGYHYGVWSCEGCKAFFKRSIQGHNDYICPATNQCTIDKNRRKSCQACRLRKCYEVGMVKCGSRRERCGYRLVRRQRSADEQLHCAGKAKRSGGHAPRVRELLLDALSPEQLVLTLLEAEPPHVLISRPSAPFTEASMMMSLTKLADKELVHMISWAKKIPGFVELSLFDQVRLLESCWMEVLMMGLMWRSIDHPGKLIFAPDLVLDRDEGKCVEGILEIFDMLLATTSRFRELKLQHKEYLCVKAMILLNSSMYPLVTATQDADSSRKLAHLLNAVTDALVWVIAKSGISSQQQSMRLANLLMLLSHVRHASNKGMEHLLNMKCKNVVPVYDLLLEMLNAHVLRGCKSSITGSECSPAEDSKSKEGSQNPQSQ
Description: Displacement of [3H]-estradiol from recombinant full-length human estrogen beta receptor expressed in baculovirus infected insect cells incubated overnight by liquid scintillation counting analysis

[4] = test system: Rattus norvegicus; assay: (§1) Organ protective activity in aldosterone-induced uninephrectomized Sprague-Dawley rat model assessed as degeneration of arteries and perivascular fibrosis in heart by measuring pathological lesion score at 3 mg/kg/day by sirius red and H and E staining based histological analysis (reference value: 1.6 +/- 0.4); type: functional
[5] = AUC (0 to infinity) in Sprague-Dawley rat at 1 mg/kg, iv; type: ADME, organism-based; parameters: time infinity, dose 1 mg/kg, route iv; conditions: in vivo
[6] = test system: Rattus norvegicus; assay: as §1, with “myocardial necrosis” for “degeneration of arteries”, “interstitial cellular infiltration” for “perivascular fibrosis”, “1.7” for “1.6”, “0.3)” for “0.4)”; type: functional
[7] = test system: Rattus norvegicus; assay: Organ protective activity in aldosterone-induced uninephrectomized Sprague-Dawley rat model assessed as glomerular mesangial proliferation in kidney by measuring pathological lesion score at 3 mg/kg/day by PAS and H and E staining based histological analysis (reference value: 1.9 +/- 0.5); type: functional
[8] = test system: Rattus norvegicus; assay: Potency index, ratio of eplerenone ED50 to compound ED50 for antagonist activity MR in po dosed Sprague-Dawley rat assessed as reversal of aldosterone induced decrease in urinary Na+/K+ ratio; type: functional
[9] = test system: Rattus norvegicus; assay: Organ protective activity in aldosterone-induced uninephrectomized Sprague-Dawley rat model assessed as interstitial cellular infiltration in kidney by measuring pathological lesion score at 1 mg/kg/day by PAS and H and E staining based histological analysis (reference value: 1.4 +/- 0.4); type: functional
[10] = test system: Rattus norvegicus; assay: Organ protective activity in aldosterone-induced uninephrectomized Sprague-Dawley rat model assessed as renal tubular ectasia in kidney by measuring pathological lesion score at 3 mg/kg/day by PAS and H and E staining based histological analysis (reference value: 1.3 +/- 0.4); type: functional
[11] = In vivo antagonist activity at MR in po dosed Sprague-Dawley rat assessed as reversal of aldosterone induced decrease in urinary Na+/K+ ratio preincubated for 3 hrs followed by aldosterone stimulation and measured over 5 hrs by automated electrolyte analyzer anlysis; type: functional; conditions: time 8 hrs
[12] = test system: Rattus norvegicus; assay: Organ protective activity in aldosterone-induced uninephrectomized Sprague-Dawley rat model assessed as glomerular mesangial proliferation in kidney by measuring pathological lesion score at 1 mg/kg/day by PAS and H and E staining based histological analysis (reference value: 1.9 +/- 0.5); type: functional
[13] = test system: Rattus norvegicus; assay: Antihypertensive activity against aldosterone induced uninephrectomized Sprague-Dawley rat assessed as reduction in urinary albumin excretion at 3 to 10 mg/kg, po qd administered for 4 weeks; type: functional, organism-based; conditions: dose 3-10 mg/kg
[14] = test system: Rattus norvegicus; assay: Organ protective activity in aldosterone-induced uninephrectomized Sprague-Dawley rat model assessed as glomerular mesangial proliferation in kidney by measuring pathological lesion score at 10 mg/kg/day by PAS and H and E staining based histological analysis (reference value: 1.9 +/- 0.5); type: functional
[15] = test system: Rattus norvegicus; assay: Organ protective activity in aldosterone-induced uninephrectomized Sprague-Dawley rat model assessed as myocardial fibrosis in heart by measuring pathological lesion score at 10 mg/kg/day by sirius red and H and E staining based histological analysis (reference value: 1.6 +/- 0.3); type: functional
[16] = test system: Rattus norvegicus; assay: as §1, with “10” for “3”; type: functional

Ki [1]: 84.2 µM
IC50 [2]: > 100 µM
IC50 [3]: > 100 µM
AUC(0-inf) [5]: 10200 ng·h/mL
SMILES: CC1(C)Oc2cc(NS(C)(=O)=O)ccc2N(c2ccc(F)cc2)C1=O [MT-3995]
Activity [4]: 0.4
Activity [6]: 0.9
Activity [7]: 0.3
fold change (FC) [8]: 10
Activity [9]: 1.1
Activity [10]: 0.1
ED50 [11]: 1.1 mg/kg
Activity [12]: 1.3
Activity [13]: Active
Activity [14]: 0
Activity [15]: 0
Activity [16]: 0
